Laboratory results reported in patent US6372793B1, “Method for treatment of a neurological disease characterized by impaired neuromodulator function” (Florida Agricultural & Mechanical University, priority 1999, dated 2002).
Counter-ions that a name gives are not always drawn.

How the values were obtained:
rat nerve cell membranes = experiment: In vitro association of [3H-methyl]SAM or 3H-MPP+ with rat nerve cell membranes; assay type: binding; conditions: for effect on association of [3H-methyl]SAM radioactivity with membranes: 100 mmM non-radioactive compound in the incubation mixture; for effect on 3H-MPP+ association with membranes: non-radioactive competitor
Description: Rat brain (1.76 g) was homogenized in 20 ml of 50 mM Tris-HCl, pH 7.4 containing 2.5 mM EDTA and 0.02% bovine serum albumin and centrifuged at 900×g for 10 min. The supernatant was transferred and the pellet re-suspended in the same buffer and centrifuged. The 900×g supernatants were combined and centrifuged at 20,000×g for 40 min. The supernatant was removed and the pellet resuspended in 5 ml of buffer, aliquoted and frozen at −70° C. until needed.
To understand whether the behavioral effects of SAM were due to interactions with cellular macromecules, [^3H-methyl]SAM (0.2 mmCi) was incubated with rat nerve cell membranes (30 mmg of protein) at 37° C. At the appropriate incubation periods, the reaction tubes were removed and centrifuged (13,000 rpm, MSE Centaur) for 10 min. The supernatant was discarded and the pellet suspended in scintillation fluid and their total radioactive content determined by scintillation counting.

SAM-induced tremors [1] = experiment: Effect of L-DOPA, SAH and NADA on SAM-induced tremors; assay type: in vivo, rat; conditions: for total duration of tremors / number of tremors: 20 min; for effect on the SAM-induced PD-like symptoms: icv before SAM
Description: (§1) Rats were cannulated for subsequent injections into the lateral ventricle as previously described (Charlton and Mack, 1994). Briefly, each rat was anesthetized with 400 mg/kg of chloral hydrate. A stainless steel guide cannula was stereotaxically placed 1.5 mm lateral and 0.6 mm caudal to the Bregma with the tip extended to the inner surface of the cranium, above the dura mater. At least 2 days following cannulation, injections were made through the cannula into the lateral ventricle with a 26 gauge insertion cannula, pre-measured to descend 5 mm from the surface of the skull into the lateral ventricle. Each injected rat was put in a cage which was then placed on the sensor assembly of the Tremor-Scan Monitor. The recording parameters were set according to the manufacturer's instructions by adjusting the Gain on the instrument to 4 which insured that most of the signals with large or small amplitudes remained within the detection limit or not reduced to the baseline respectively, as viewed on the computer monitoring screen. The noise that could interfere with the SAM-induced tremors is usually of low amplitude and was reduced to baseline levels by this gain setting. This setting was used for all subsequent recording and storage of the vibration signals due to tremor-like activities of the
Cannulated rats were injected either with PBS (5 mml), L-DOPA (1.5 mmmol), SAH (1.0 mmmol) or NADA (1.0 mmmol) followed by an injection of either 0.75 or 1.0 mmmol of SAM. Each compound was dissolved or finely suspended in PBS. They were then monitored for tremors on the Tremor Monitor for a period of 20 min.

SAM-induced tremors [2] = experiment: Effect of farnesylcysteine/prenylcysteine analogs on SAM-induced tremors and PD-like symptoms; assay type: in vivo, rat; conditions: 20 min
Description: as §1
AFC, FTP and FTS were each suspended in PBS and dissolved by adjusting the pH to 7.4 with NaOH followed by the addition of more PBS to make 0.2 mmol/ml solutions. PBS or each compound, dissolved in 5 mml of solution, was injected into the lateral ventricle of cannulated rats 5 min prior to SAM injections. SAM (1 mmmol in 5 mml of PBS) was injected and the movements recorded over a 20 min period as described above.

rat brain membranes = experiment: SAM-dependent methylation of FC analogs by rat brain membranes; assay type: biochemical; conditions: 60 min; for methylation by rat nerve cell membranes in the presence of [3H-methyl]SAM: 200 mmM analog, 37° C.
Description: AFC, FTP and FTS (200 mmM) were each incubated for 60 min with rat brain membranes (240 mmg of protein) at 37° C. in 100 mM Tris-HCl, pH 7.4 containing SAM (10 mmM, 1.3 mmCi [^3H-methyl]-SAM), 5 mM MgSO4 and 0.1 M NaCl in a total incubation volume of 400 mml. The reactions were stopped with 5% TFA and chilled on ice. Hexane (400 mml) was added and the contents of the tubes mixed thoroughly. This was followed by centrifugation at 20,000 g for 2 min. The upper hexane layer was removed and 250 mml analyzed by reversed-phase HPLC on a Whatman column (C18, 4.6×150 mm). Methylated FC analogs were eluted from the column at a rate of 1 ml/min with a 0 to 100% gradient of acetonitrile in 0.1% TFA from the 3rd to the 15th min of each run. This composition was maintained for a further 2 min before re-equilibration of the column for the next sample. Detection was conducted with an online radiochromatographic detection system (INUS β-ram, Tampa, Fla.).

[3] = system: 6-hydroxydopamine-lesioned rats; experiment: Amphetamine-induced ipsiversive rotation of 6-hydroxydopamine-lesioned rats (RotoScan Rotometer); assay type: in vivo, rat
rats [4] = experiment: Effect of farnesylcysteine analogs on the movements of rats (Animal Activity Monitor); assay type: in vivo, rat; conditions: 1 mmmol icv alone or in combination with 1 mmmol of SAM
Description: Cannulated rats were injected (icv) with AFC or FTP (1 mmmol, 5 mml) in combination with PBS or 1 mmmol of SAM, injected similarly 5 min after injection of the FC analogs. Their movements were measured in an Animal Activity Monitor (AccuScan Electronics, Inc., Columbus, Ohio) and compared to those of control animals that received PBS.

rats [5] = experiment: Tremors and PD-like symptoms induced by icv SAM, recorded on the Tremor-Scan Monitor; assay type: in vivo, rat
Description: as §1
The Tremor Monitor software, which allows for the determination of 1) the signal amplitude, 2) the number of cycles in each activity or episode, 3) the number of activities and 4) the duration of each activity or episode, aided in the storage and subsequent retrieval and analysis of the recorded activity profiles. Analysis of the stored data was achieved by altering the minimum and maximum frequency, amplitude and number of cycles to reflect the unique properties of each kind of movement and thus delineate the SAM-induced tremors from non-tremor activity signals.
The dose-dependent effects of SAM was also determined in cannulated rats injected with 0 (PBS), 0.5, 0.75 and 1.0 mmmol of SAM. Their tremor activities were recorded on the Tremor-Scan monitor for 20 min.
To determine the duration and magnitude of SAM-induced tremors, groups of cannulated rats were injected either with 1 mmmol of SAM or with 5 mml of PBS, as control. The animals were monitored on the Tremor-Scan Monitor for a duration of 2 h starting immediately after the injections.

[6] = 1 mmmol NADA or SAH icv followed by 1 mmmol SAM, or SAM alone
[7] = 1 mmmol FC analog icv 5 min before 1 mmmol SAM
[8] = 1.5 mmmol L-DOPA icv before 0.75 mmmol SAM, or SAM alone
[9] = 0 mmmol FC analog followed by 1 mmmol SAM
[10] = 1 mmmol SAM icv, first 10 min interval of 2 h recording
[11] = 20 min, re-analysis with minimum amplitude 20 and minimum cycles per activity 20
[12] = SAM icv, 20 min recording, frequency window 8 to 20, minimum amplitude 10, minimum 10 cycles
[13] = raw data, 20 min monitoring, minimum amplitude 10, minimum cycles 10

## C[S+](CC[C@H](N)C(=O)[O-])C[C@H]1O[C@@H](n2cnc3c(N)ncnc32)[C@H](O)[C@@H]1O (stereo partly drawn) [[^3H-methyl]SAM, S-[methyl-^3H]-SAM]
Rat nerve cell membranes; [3H-methyl]SAM incubated with rat nerve cell membrane preparation, no competitor
  radioactivity associated with the membranes: about 6000 DPM

## CC(=O)NCCc1ccc(O)c(O)c1 [NADA, N-acetyldopamine]
SAM-induced tremors [1]; [6]
  total duration of tremors: 200±43
SAM-induced tremors [1]
  effect on the SAM-induced PD-like symptoms: little or no effect

## CC(C)=CCCC(C)=CCCC(C)=CCSc1ccccc1C(=O)O [FTS, farnesylthiosalicylic acid]
SAM-induced tremors [2]; [7]
  tremors observed: significantly fewer tremors
Rat brain membranes
  methylation by rat nerve cell membranes in the presence of [3H-methyl]SAM: never methylated
Rat brain membranes; indicated concentrations of FTS
  inhibition of the methylation of AFC and FTP: dose-dependently inhibited

## CC(=O)N[C@@H](CSC/C=C(\C)CC/C=C(\C)CCC=C(C)C)C(=O)O [AFC, N-acetyl-S-farnesyl-L-cysteine]
SAM-induced tremors [2]; 0.5 mmmol FC analog icv 5 min before 1 mmmol SAM
  tremors observed: significant reduction of tremors
SAM-induced tremors [2]; [7]
  tremors observed: no tremors
[3]; AFC alone, no amphetamine
  net rotations: only few net rotations
[3]; amphetamine ip plus AFC 1 mmmol icv, versus amphetamine alone
  increase of amphetamine-induced rotation: 2 fold
[3]; amphetamine ip plus AFC 1 mmmol into the left lateral ventricle
  ipsiversive rotations within 90 min: 830±110
[3]; amphetamine ip plus AFC 1 mmmol into the right lateral ventricle
  ipsiversive rotations within 90 min: 790±160
Rat brain membranes
  methylation by rat nerve cell membranes in the presence of [3H-methyl]SAM: avid methyl acceptors
Rats [4]
  movement activity: significantly higher degree of movement activity

## C[C@H](N)Cc1ccccc1 [amphetamine, d-amphetamine sulfate]
[3]; amphetamine ip (5 mg/kg) alone, 7 days after intrastriatal 6-OHDA
  ipsiversive rotations within 90 min: 390±130

## N[C@@H](Cc1ccc(O)c(O)c1)C(=O)O [L-DOPA, L-dihydroxyphenylalanine]
SAM-induced tremors [1]; [8]
  number of tremors: 25±4
  total duration of tremors: 111 ± 22 s
SAM-induced tremors [1]
  effect on the SAM-induced PD-like symptoms: little or no effect

## C[n+]1ccc(-c2ccccc2)cc1 [MPP^+, 1-methyl-4-phenylpyridinium ion]
Rat nerve cell membranes
  effect on association of [3H-methyl]SAM radioactivity with membranes: No effect

## Nc1ncnc2c1ncn2[C@@H]1O[C@H](CSCC[C@H](N)C(=O)O)[C@@H](O)[C@H]1O [SAH, S-adenosyl-L-homocysteine]
Rat nerve cell membranes; [3H-methyl]SAM, 100 mmM competitor in the incubation mixture
  radioactivity associated with the membranes in presence of competitor: about 2000 DPM
Rat nerve cell membranes
  effect on 3H-MPP+ association with membranes: little affected
SAM-induced tremors [1]; [6]
  total duration of tremors: 212±52
SAM-induced tremors [1]
  effect on the SAM-induced PD-like symptoms: little or no effect

## C[S+](CC[C@H](N)C(=O)O)C[C@H]1O[C@@H](n2cnc3c(N)ncnc32)[C@H](O)[C@@H]1O (stereo partly drawn) [SAM, S-Adenosyl-L-methionine]
SAM-induced tremors [2]; [9]
  duration of tremors: 310 ± 70 s
  number of tremors: 46±10
Rats [5]; 0.5 mmmol SAM icv, 20 min
  number of tremors: minimal
  total duration of tremors: minimal
Rats [5]; 0.75 mmmol SAM icv, 20 min
  increase in number of tremors: 7 fold
  increase in total duration of tremors compared to the 0.5 mmmol injection: 9 fold
Rats [5]; 1 mmmol SAM icv
  rate of tremor episodes during the first 10 min: about 2 episodes per min
  time that abnormal posture, hypokinesia and rigidity remained: about 90 min
Rats [5]; 1 mmmol SAM icv, 20 min
  increase in number of tremors: 8 fold
  increase in total duration of tremors compared to the 0.5 mmmol injection: 12 fold
Rats [5]; [10]
  number of tremors in the first 10 min interval: 19±4
  total duration of tremors within the first 10 min: 120 ± 20 s
Rats [5]; [11]
  number of tremor activities: 70±8
  total duration of tremor activity: 360 ± 18 s
Rats [5]; [12]
  average amplitude: 42.3±5
  frequency: 12±0.1
  number of cycles (waves) per activity: 54±6
Rats [5]; SAM into the lateral ventricle
  time to onset of tremors, hypokinesia, rigidity and abnormal posture after injection: 0.5 to 2 min
Rats [5]; [13]
  number of activities: 92±12
  total duration of tremors: 470 ± 50 s
Rat nerve cell membranes; 100 mmM non-radioactive SAM added after 2 h incubation with [3H-methyl]SAM
  change of membrane-associated radioactivity after addition of non-radioactive compound (reversibility): neither increased nor decreased
Rat nerve cell membranes
  effect on association of [3H-methyl]SAM radioactivity with membranes: inhibited
  effect on 3H-MPP+ association with membranes: little affected
SAM-induced tremors [1]; [6]
  total duration of tremors: 273±128
SAM-induced tremors [1]; [8]
  number of tremors: 33±7
  total duration of tremors: 170 ± 34 s
